Laboratory results taken from patent US12233060B2, “Inhibitors of Ataxia-Telangiectasia Mutated and Rad3-related protein kinase (ATR) for use in methods of treating cancer” (THE INSTITUTE OF CANCER RESEARCH: ROYAL CANCER HOSPITAL, priority 2016, dated 2025).

How the values were obtained:
[1] = system: HCT116 ARID1A isogenic (+/+ and −/−) cell lines; assay: Clonogenic survival of ARID1A isogenic cells; format: cell-based, human
Procedure: FIG. 2. In vitro ARID1A/ATR synthetic lethality. A. Chemical structure of VX-970. B. Western blot of ARID1A in human ARID1A isogenic HCT116 cells. C. Image of colonies in 6 well-plate clonogenic assay. HCT116 ARID1A isogenic (^+/+ and ^−/−) cell lines were exposed to increasing concentrations of the VE-821 (0, 0.1, 1 uM) and VX-970 (0, 0.01, 0.05 uM) for 14 days. D and E. Dose response clonogenic survival curve of HCT116 ARID1A isogenic (^+/+ and ^−/−) cell lines exposed to increasing concentrations of the VE-821 and VX-970 for 14 days. Error bars represent SD from triplicate experiments, ANOVA p-value of <0.0001. F. Area under curve (AUC) box whisker comparison plot for human tumor cell lines exposed to VX-970 for five days. ARID1A wild type tumor cell lines (n=15) were compared to ARID1A mutant cell lines (n=9). Student's t-test p=0.00594. G. Dose response clonogenic survival curve of mouse Arid1a isogenic ES cell lines. Experiment was performed as per (C). Error bars represent SD from triplicate experiments, ANOVA p value of <0.0001. H. Western blot of Arid1a protein expression in mouse ES Arid1a isogenic cells. I. Z score box whisker comparison plot for 86 human tumor cell lines transfected with ATR siRNA. Cells lines were transfected with siRNA and cell viability was estimated five days later by Cell Titre Glo reagent.
Short-term survival assays were performed in 384-well plates. Exponentially growing cells were plated at a concentration of 500 cells/well. Drug was added 24 h after seeding and cells were continuously exposed to the drug for five days, after which cell viability was estimated using CellTitre-Glo luminescence (Promega). For clonogenic assays, cells were seeded in 6-well plates (500 cells/well) and continuously exposed to drug 24!h after seeding for 14 days. Media containing fresh drug was replaced every 72 hours. Cells were fixed with 10% trichloroacetic acid and stained with sulphorhodamine B (Sigma-Aldrich, Gillingham, UK). Colonies were counted manually. All cell-based assays were performed at least in triplicate.

TOV21G xenografts = assay: In vivo efficacy, established TOV21G xenografts; design: species or system mice; conditions: 60 mg/kg, 4x weekly oral gavage, 28 days; p=0.014 ANOVA
[2] = system: HCT116 ARID1A+/+ and ARID1A−/− cells; assay: Cell cycle analysis of synchronized cells (G2/M fraction, FACS); format: cell-based, human; conditions: double thymidine block, release into VX-970 (500 nM)
Procedure: FIG. 5. ATRi effect on cell cycle progression, chromosomal instability, DNA damage and apoptosis. A. Barchart illustrating G2/M fraction in HCT116 ARID1A^+/+ and ARID1A^−/− cells synchronized in G1/early S phase by double thymidine block and released into fresh media containing DMSO or VX-970 (500 nM). The percentage of cells in G2/M was measured by FACS following PI staining. […] Cells were stained with DAPI. A minimum of 50 anaphases were scored in 3 biological replicate experiments. *p=0.023, Student's t-test. C. Bar chart illustrating frequency of anaphase bridges in TOV21G cells exposed to VX-970 (0.5 uM) or DMSO for 8 hours prior to fixation. Experiment performed as for (B). p=0.006 Student's t-test. D. Mitotic spread images from HCT116 ARID1A^+/+ and ARID1A^−/− cells following exposure to either DMSO or VX-970 (1 uM). Scale bar represents 20 um. E. Bar chart illustrating extent of chromosomal abnormalities in HCT116 ARID1A^+/+ and ARID1A^−/− cells exposed to VX-970 (1 uM). *p<0.05, Student's t-test. […]
Cells were plated at a density of 2×10^5 cells per well of a six-well plate and incubated for 24 hours after which ATRi or 0.1% DMSO was added for the indicated period of time. […] Samples were analyzed on a BD LSR II flow cytometer using BD FACSDiva software (BD Biosciences). […]

[3] = system: HCT116 ARID1A+/+ and ARID1A−/− cells; assay: Mitotic spreads, chromosomal aberrations; format: cell-based, human; conditions: VX-970 1 uM; p=0.0007 Student's t-test
Procedure: FIG. 5. ATRi effect on cell cycle progression, chromosomal instability, DNA damage and apoptosis. A. Barchart illustrating G2/M fraction in HCT116 ARID1A^+/+ and ARID1A^−/− cells synchronized in G1/early S phase by double thymidine block and released into fresh media containing DMSO or VX-970 (500 nM). The percentage of cells in G2/M was measured by FACS following PI staining. […] Cells were stained with DAPI. A minimum of 50 anaphases were scored in 3 biological replicate experiments. *p=0.023, Student's t-test. C. Bar chart illustrating frequency of anaphase bridges in TOV21G cells exposed to VX-970 (0.5 uM) or DMSO for 8 hours prior to fixation. Experiment performed as for (B). p=0.006 Student's t-test. D. Mitotic spread images from HCT116 ARID1A^+/+ and ARID1A^−/− cells following exposure to either DMSO or VX-970 (1 uM). Scale bar represents 20 um. E. Bar chart illustrating extent of chromosomal abnormalities in HCT116 ARID1A^+/+ and ARID1A^−/− cells exposed to VX-970 (1 uM). *p<0.05, Student's t-test. F. Western blot illustrating γH2AX in HCT116 ARID1A^+/+ and ARID1A^−/− cells exposed to VX-970 (0.5 uM) for the indicated time prior to cell lyses. G. Bar chart illustrating apoptotic fraction in cells exposed to increasing concentrations of VX-970 for 24 hours. Experiment as per FIG. 3I. H. Western blot illustrating PARP cleavage in HCT116 ARID1A^+/+ and ARID1A^−/− cells exposed to VX-970. […]

SMILES: CNCc1ccc(-c2cc(-c3nc(-c4ccc(S(=O)(=O)C(C)C)cc4)cnc3N)on2)cc1 [VX-970, 5-[4-(Isopropylsulfonyl)phenyl]-3-(3-{4-[(methylamino)methyl]phenyl}-1,2-oxazol-5-yl)-2-pyrazinamine]
- ARID1A−/− selectivity compared with PARP inhibitors or cisplatin [1]: greater than for other proposed ARID1A-targeted agents
- growth of established TOV21G tumours vs vehicle (TOV21G xenografts): significantly inhibited the growth
- G2/M delay in ARID1A−/− cells [2]: abrogated the G2/M delay
- frequency of chromosomal aberrations in ARID1A−/− cells [3]: significant enhancement in the frequency of chromosomal aberrations
